Results reported in patent US20070072840A1, “POLYMORPHIC FORMS OF QUETIAPINE” (priority 2005, published 2007).
Where a name gives a salt, the structure may show the parent alone.

What was measured:
[1] = result in words, conditions not given
[2] = result in words, conditions not given; remark: listed apart in the source
[3] = as compared to any other crystalline form

SMILES: OCCOCCN1CCN(C2=Nc3ccccc3Sc3ccccc32)CC1 [amorphous quetiapine hydrochloride, Quetiapine Hydrochloride]
- stability [1]: stable
- hygroscopicity [2]: non-hygroscopic
- solubility in water [3]: more soluble in water
